Measured values published in ChEMBL document CHEMBL5338739, “Discovery of Dual Lysine Methyltransferase G9a and EZH2 Inhibitors with In Vivo Efficacy against Malignant Rhabdoid Tumor” (J Med Chem, 2023).
Active and inactive are the calls of the source. The calls are words filed in the database; no cut-off is given here.

Assays:
[1] = Apparent volume of distribution in Sprague-Dawley rat at 30 mg/kg, po administered for 24 hrs by HPLC analysis; format: ADME, organism-based; conditions: in vivo
[2] = target: Histone-lysine N-methyltransferase EZH2 (Homo sapiens, UniProt Q15910); assay: Inhibition of human EZH2 using SAM as substrate at 10 uM by time-resolved fluorescence assay relative to control
Sequence of Histone-lysine N-methyltransferase EZH2 (Q15910 whole entry, looked up): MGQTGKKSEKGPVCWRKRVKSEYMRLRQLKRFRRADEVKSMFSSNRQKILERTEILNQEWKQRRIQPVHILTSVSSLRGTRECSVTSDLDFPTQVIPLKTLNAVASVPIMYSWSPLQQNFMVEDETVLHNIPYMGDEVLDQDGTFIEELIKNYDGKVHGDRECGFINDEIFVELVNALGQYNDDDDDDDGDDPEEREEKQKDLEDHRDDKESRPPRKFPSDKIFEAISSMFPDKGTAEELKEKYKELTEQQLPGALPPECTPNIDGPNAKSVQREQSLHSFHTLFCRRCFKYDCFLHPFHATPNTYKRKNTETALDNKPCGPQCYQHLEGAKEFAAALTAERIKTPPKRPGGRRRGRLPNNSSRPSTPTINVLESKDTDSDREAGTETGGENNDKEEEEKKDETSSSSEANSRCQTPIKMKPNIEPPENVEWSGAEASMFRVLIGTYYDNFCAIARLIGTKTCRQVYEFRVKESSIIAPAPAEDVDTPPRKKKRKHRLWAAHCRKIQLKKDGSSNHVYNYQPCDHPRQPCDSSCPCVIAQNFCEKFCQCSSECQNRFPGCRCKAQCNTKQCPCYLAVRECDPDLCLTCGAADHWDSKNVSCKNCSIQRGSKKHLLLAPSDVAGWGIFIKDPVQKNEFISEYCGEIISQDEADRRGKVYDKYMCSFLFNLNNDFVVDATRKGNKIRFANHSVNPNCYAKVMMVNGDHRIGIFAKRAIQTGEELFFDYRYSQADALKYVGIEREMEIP

[3] = Toxicity in BALB/c nude mouse xenografted with human RD cells assessed as effect on liver viscera index at 10 to 20 mg/kg, ip administered for 5 consecutive days followed by 2 rest days for 3 weeks; format: organism-based; conditions: in vivo, 504 h, dose 10-20 mg/kg
[4] = target: T1, Histone-lysine N-methyltransferase EHMT2 (Homo sapiens) (UniProt Q96KQ7); assay: Inhibition of human recombinant EHMT2 G9a using SAM as substrate at 10 uM by time-resolved fluorescence assay relative to control
T1 sequence (whole entry): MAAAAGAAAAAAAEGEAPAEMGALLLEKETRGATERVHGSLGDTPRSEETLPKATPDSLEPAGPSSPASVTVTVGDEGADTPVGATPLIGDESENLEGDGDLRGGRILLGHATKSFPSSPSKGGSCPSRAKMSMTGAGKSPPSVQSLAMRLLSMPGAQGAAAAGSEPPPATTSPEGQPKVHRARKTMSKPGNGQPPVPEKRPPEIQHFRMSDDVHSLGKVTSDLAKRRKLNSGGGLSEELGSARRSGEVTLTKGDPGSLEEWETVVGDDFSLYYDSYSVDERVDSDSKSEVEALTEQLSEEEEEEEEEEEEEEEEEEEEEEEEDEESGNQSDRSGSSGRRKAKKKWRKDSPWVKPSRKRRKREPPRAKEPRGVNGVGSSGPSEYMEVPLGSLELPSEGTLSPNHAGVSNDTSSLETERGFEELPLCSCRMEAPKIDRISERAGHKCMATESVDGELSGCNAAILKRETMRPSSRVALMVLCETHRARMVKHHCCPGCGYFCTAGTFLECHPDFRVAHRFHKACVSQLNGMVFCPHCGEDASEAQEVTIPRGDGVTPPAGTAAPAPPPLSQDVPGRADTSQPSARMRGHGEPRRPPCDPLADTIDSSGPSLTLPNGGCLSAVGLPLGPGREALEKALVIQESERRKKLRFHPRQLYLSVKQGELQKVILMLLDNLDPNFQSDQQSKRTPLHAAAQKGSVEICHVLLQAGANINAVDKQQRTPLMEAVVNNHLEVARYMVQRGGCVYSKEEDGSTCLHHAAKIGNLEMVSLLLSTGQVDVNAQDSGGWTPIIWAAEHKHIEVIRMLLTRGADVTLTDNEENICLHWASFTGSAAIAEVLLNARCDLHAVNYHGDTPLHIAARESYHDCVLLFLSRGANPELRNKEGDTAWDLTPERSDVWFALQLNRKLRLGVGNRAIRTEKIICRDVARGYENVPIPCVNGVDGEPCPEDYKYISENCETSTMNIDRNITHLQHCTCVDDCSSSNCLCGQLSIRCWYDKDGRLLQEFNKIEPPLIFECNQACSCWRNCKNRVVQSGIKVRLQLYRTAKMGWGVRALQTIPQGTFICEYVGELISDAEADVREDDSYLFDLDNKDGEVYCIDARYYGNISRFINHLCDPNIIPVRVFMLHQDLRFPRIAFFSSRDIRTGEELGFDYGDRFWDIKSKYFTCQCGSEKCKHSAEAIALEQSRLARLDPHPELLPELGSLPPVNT

[5] = target: Histone-lysine N-methyltransferase, H3 lysine-79 specific (Homo sapiens) (UniProt Q8TEK3); assay: Inhibition of […] (unknown origin) using SAM as substrate at 10 uM by time-resolved fluorescence assay relative to control
Sequence of Histone-lysine N-methyltransferase, H3 lysine-79 specific (Homo sapiens) (Q8TEK3 whole entry, looked up): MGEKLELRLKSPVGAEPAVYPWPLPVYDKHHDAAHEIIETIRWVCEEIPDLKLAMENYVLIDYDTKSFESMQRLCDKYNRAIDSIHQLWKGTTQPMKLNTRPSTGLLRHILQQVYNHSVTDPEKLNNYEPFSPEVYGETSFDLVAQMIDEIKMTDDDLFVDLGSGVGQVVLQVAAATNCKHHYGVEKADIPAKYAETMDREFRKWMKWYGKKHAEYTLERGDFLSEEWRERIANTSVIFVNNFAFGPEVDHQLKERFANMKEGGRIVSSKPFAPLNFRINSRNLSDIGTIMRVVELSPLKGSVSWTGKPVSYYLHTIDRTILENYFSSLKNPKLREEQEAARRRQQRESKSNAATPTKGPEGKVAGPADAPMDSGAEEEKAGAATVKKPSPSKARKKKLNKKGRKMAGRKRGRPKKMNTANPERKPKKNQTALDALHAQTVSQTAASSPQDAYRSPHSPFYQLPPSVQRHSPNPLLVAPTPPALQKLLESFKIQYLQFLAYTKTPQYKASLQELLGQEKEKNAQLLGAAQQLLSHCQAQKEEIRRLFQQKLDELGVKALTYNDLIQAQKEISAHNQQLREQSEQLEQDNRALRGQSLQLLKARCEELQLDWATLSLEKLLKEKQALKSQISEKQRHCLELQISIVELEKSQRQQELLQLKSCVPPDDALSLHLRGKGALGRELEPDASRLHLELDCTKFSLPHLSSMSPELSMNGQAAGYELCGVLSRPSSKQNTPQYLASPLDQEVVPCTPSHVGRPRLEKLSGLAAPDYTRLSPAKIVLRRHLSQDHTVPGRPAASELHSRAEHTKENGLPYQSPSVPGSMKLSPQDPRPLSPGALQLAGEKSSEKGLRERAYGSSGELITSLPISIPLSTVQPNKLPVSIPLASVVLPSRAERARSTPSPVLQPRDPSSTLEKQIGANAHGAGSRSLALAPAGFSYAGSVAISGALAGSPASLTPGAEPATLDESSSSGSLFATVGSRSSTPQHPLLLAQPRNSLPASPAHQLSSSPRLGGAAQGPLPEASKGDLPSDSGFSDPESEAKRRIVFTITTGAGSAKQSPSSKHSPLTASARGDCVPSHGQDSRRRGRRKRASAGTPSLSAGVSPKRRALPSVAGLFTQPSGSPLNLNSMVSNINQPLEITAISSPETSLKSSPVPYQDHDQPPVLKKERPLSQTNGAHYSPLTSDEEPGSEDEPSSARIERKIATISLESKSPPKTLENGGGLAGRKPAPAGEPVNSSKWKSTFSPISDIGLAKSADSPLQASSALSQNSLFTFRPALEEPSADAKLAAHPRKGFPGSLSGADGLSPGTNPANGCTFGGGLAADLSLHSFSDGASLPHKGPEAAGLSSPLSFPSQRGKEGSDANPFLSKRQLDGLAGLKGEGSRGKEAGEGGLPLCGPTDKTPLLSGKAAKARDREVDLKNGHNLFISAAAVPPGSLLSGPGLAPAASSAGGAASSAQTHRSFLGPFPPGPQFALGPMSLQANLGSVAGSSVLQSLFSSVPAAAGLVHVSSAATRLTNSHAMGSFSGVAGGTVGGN

[6] = Toxicity in BALB/c nude mouse xenografted with human RD cells assessed as body weight fluctuations at 10 to 20 mg/kg, ip administered for 5 consecutive days followed by 2 rest days for 3 weeks; format: organism-based; conditions: in vivo, 504 h, dose 10-20 mg/kg
RD [7] = assay: Downregulation of H3K4me2 expression in human RD cells at 5 uM incubated for 6 days by immunoblotting analysis; format: functional, cell-based; conditions: time 6.0 day
[8] = Toxicity in BALB/c nude mouse xenografted with human RD cells assessed as effect on heart viscera index at 10 to 20 mg/kg, ip administered for 5 consecutive days followed by 2 rest days for 3 weeks; format: organism-based; conditions: in vivo, 504 h, dose 10-20 mg/kg
[9] = Plasma protein binding in Kunming mouse by equilibrium dialysis method; format: ADME, cell-free; conditions: read-out: PPB (converted)
RD [10] = assay: Cytotoxicity against human RD cells assessed as reduction in cell viability incubated for 72 hrs by MTT assay; format: functional
[11] = Clearance in Sprague-Dawley rat at 10 mg/kg, iv administered for 12 hrs by HPLC analysis; format: ADME, organism-based; conditions: in vivo
RD [12] = assay: Downregulation of H3K79me2 expression in human RD cells at 5 uM incubated for 6 days by immunoblotting analysis; format: functional, cell-based; conditions: time 6.0 day
[13] = Cmax in Sprague-Dawley rat at 30 mg/kg, po administered for 24 hrs by HPLC analysis; format: ADME, organism-based; design: time 24 hrs, dose 30 mg/kg, route po; conditions: in vivo
[14] = Half life in Sprague-Dawley rat at 10 mg/kg, iv administered for 12 hrs by HPLC analysis; format: ADME, organism-based; conditions: in vivo
[15] = AUC (0 to 24 hrs) in Sprague-Dawley rat at 30 mg/kg, po administered for 24 hrs by HPLC analysis; format: ADME, organism-based; design: time 24 hrs, dose 30 mg/kg, route po; conditions: in vivo
[16] = Half life in Sprague-Dawley rat at 30 mg/kg, po administered for 24 hrs by HPLC analysis; format: ADME, organism-based; conditions: in vivo
[17] = Toxicity in BALB/c nude mouse xenografted with human RD cells assessed as effect on spleen viscera index at 10 to 20 mg/kg, ip administered for 5 consecutive days followed by 2 rest days for 3 weeks; format: organism-based; conditions: in vivo, 504 h, dose 10-20 mg/kg

In the case of `COc1cc2c(NCc3c(C)cc(C)[nH]c3=O)nc(N3CCC(F)(F)CC3)nc2cc1OCCCN1CCCC1`, the Vc [1] is reported as 17.518 L/kg, the inhibition [2] is reported as 98.3% and the Activity [3] is reported as “Non-Toxic”. The inhibition [4] was 99.1%, the inhibition [5] was -5.87% and the Activity [6] was “Non-Toxic”. For the same molecule, the Activity (RD [7]) was “inactive”, the Activity [8] was “Non-Toxic” and the fraction unbound [9] was 0.186. The CC50 (RD [10]) was 19.6 µM, the CL [11] was 15.14 mL/min/kg and the Activity (RD [12]) was “inactive”. It also gave a Cmax [13] of 3180 ng/mL, a half-life [14] of 3.47 h and an AUC(0-t) at 24 h [15] of 5350 ng·h/mL. The half-life [16] was 4.02 h and the Activity [17] was “Non-Toxic”.
